Source: patent US9695155B2, “Herbicidal substituted pyrimidinyloxy benzene compounds” (E. I. DU PONT DE NEMOURS AND COMPANY, priority 2013, dated 2017)

Tests used:
barnyardgrass [1] = test: Test C flooded paddy test; assay type: in vivo, Echinochloa crus-galli; details: Flood, scale 0 to 100 (0 no effect, 100 complete control), 13 to 15 days
Method in brief: (§1)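 Flooded 3 cm over soil; compound into paddy water; depth kept constant. Greenhouse 13–15 d.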

goosegrass = test: Test E preemergence; assay type: in vivo, Eleusine indica; details: for Goosegrass plant response rating: scale 0 to 100 (0 no effect, 100 complete control)
Method in brief: (§2)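 Response was scored visually on a 0-100 scale (100 = complete control) versus controls after 14 to 21 days in the greenhouse. Test chemicals, formulated with surfactant in a non-phytotoxic solvent mixture, had been applied preemergence to seeds in silt loam soil or postemergence to 1- to 4-leaf plants in potting medium.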

hairy beggarticks = test: Test E preemergence; assay type: in vivo, Bidens pilosa; details: preemergence; for Beggarticks plant response rating: scale 0 to 100 (0 no effect, 100 complete control)
Method in brief: as §2

lambsquarters = test: Test E preemergence; assay type: in vivo, Chenopodium album; details: for Lambsquarters plant response rating: scale 0 to 100 (0 no effect, 100 complete control)
Method in brief: as §2

johnsongrass = test: Test E preemergence; assay type: in vivo, Sorghum halepense; details: for Johnsongrass plant response rating: scale 0 to 100 (0 no effect, 100 complete control)
Method in brief: as §2

surinam grass = test: Test E preemergence; assay type: in vivo, Brachiaria decumbens; details: for Surinam Grass plant response rating: scale 0 to 100 (0 no effect, 100 complete control)
Method in brief: as §2

fall panicum = test: Test E preemergence; assay type: in vivo, Panicum dichotomiflorum; details: for Panicum, Fall plant response rating: scale 0 to 100 (0 no effect, 100 complete control)
Method in brief: as §2

ragweed = test: Test E preemergence; assay type: in vivo, Ambrosia elatior; details: for Ragweed plant response rating: scale 0 to 100 (0 no effect, 100 complete control)
Method in brief: as §2

ducksalad = test: Test C flooded paddy test; assay type: in vivo, Heteranthera limosa; details: Flood, scale 0 to 100 (0 no effect, 100 complete control), 13 to 15 days
Method in brief: as §1

barnyardgrass [2] = test: Test E preemergence; assay type: in vivo, Echinochloa crus-galli; details: preemergence; for Barnyardgrass plant response rating: scale 0 to 100 (0 no effect, 100 complete control)
Method in brief: as §2

wild poinsettia = test: Test E preemergence; assay type: in vivo, Euphorbia heterophylla; details: for Poinsettia, Wild plant response rating: scale 0 to 100 (0 no effect, 100 complete control)
Method in brief: as §2

dayflower = test: Test E preemergence; assay type: in vivo, Commelina virginica; details: for Dayflower, VA plant response rating: scale 0 to 100 (0 no effect, 100 complete control)
Method in brief: as §2

large (Lg) crabgrass = test: Test E preemergence; assay type: in vivo, Digitaria sanguinalis; details: for Crabgrass, Large plant response rating: scale 0 to 100 (0 no effect, 100 complete control)
Method in brief: as §2

[3] = 8 g ai/ha, scale 0 to 100, 0 is no effect, 100 is complete control
[4] = 125 g ai/ha, scale 0 to 100, 0 no effect, 100 complete control

Fc1cccc(Oc2ncc(Cl)cn2)c1-n1cc(I)cn1 [Compound 179]
Plant response rating, Barnyardgrass (barnyardgrass [1]; 31 g ai/ha): 0
Plant response rating, Barnyardgrass (barnyardgrass [1]; 62 g ai/ha): 0
Plant response rating, Barnyardgrass (barnyardgrass [1]; 125 g ai/ha): 0
Plant response rating, Barnyardgrass (barnyardgrass [1]; 250 g ai/ha): 0
Plant response rating, Goosegrass (goosegrass; [3]): 0
Goosegrass plant response rating (goosegrass; 62 g ai/ha): 35
Plant response rating, Goosegrass (goosegrass; [4]): 70
Plant response rating, Beggarticks (hairy beggarticks; [3]): 0
Beggarticks plant response rating (hairy beggarticks; 16 g ai/ha): 0
Beggarticks plant response rating (hairy beggarticks; 62 g ai/ha): 0
Plant response rating, Beggarticks (hairy beggarticks; [4]): 0
Plant response rating, Lambsquarters (lambsquarters; [3]): 0
Lambsquarters plant response rating (lambsquarters; 62 g ai/ha): 95
Plant response rating, Lambsquarters (lambsquarters; [4]): 100
Plant response rating, Johnsongrass (johnsongrass; [3]): 0
Johnsongrass plant response rating (johnsongrass; 62 g ai/ha): 20
Plant response rating, Johnsongrass (johnsongrass; [4]): 25
Plant response rating, Surinam Grass (surinam grass; [3]): 0
Surinam Grass plant response rating (surinam grass; 62 g ai/ha): 0
Plant response rating, Surinam Grass (surinam grass; [4]): 0
Plant response rating, Panicum, Fall (fall panicum; [3]): 0
Panicum, Fall plant response rating (fall panicum; 62 g ai/ha): 75
Plant response rating, Panicum, Fall (fall panicum; [4]): 98
Plant response rating, Ragweed (ragweed; [3]): 0
Ragweed plant response rating (ragweed; 62 g ai/ha): 0
Plant response rating, Ragweed (ragweed; [4]): 0
Plant response rating, Ducksalad (ducksalad; 31 g ai/ha): 20
Plant response rating, Ducksalad (ducksalad; 62 g ai/ha): 60
Plant response rating, Ducksalad (ducksalad; 125 g ai/ha): 85
Plant response rating, Ducksalad (ducksalad; 250 g ai/ha): 95
Plant response rating, Barnyardgrass (barnyardgrass [2]; [3]): 0
Barnyardgrass plant response rating (barnyardgrass [2]; 16 g ai/ha): 0
Barnyardgrass plant response rating (barnyardgrass [2]; 62 g ai/ha): 10
Plant response rating, Barnyardgrass (barnyardgrass [2]; [4]): 20
Plant response rating, Poinsettia, Wild (wild poinsettia; [3]): 0
Poinsettia, Wild plant response rating (wild poinsettia; 62 g ai/ha): 30
Plant response rating, Poinsettia, Wild (wild poinsettia; [4]): 35
Plant response rating, Dayflower, VA (dayflower; [3]): 0
Dayflower, VA plant response rating (dayflower; 16 g ai/ha): 0
Dayflower, VA plant response rating (dayflower; 62 g ai/ha): 0
Plant response rating, Dayflower, VA (dayflower; [4]): 60
Plant response rating, Crabgrass, Large (large (Lg) crabgrass; [3]): 0
Crabgrass, Large plant response rating (large (Lg) crabgrass; 16 g ai/ha): 0
Crabgrass, Large plant response rating (large (Lg) crabgrass; 62 g ai/ha): 75
Plant response rating, Crabgrass, Large (large (Lg) crabgrass; [4]): 98

FC(F)c1cccc(Oc2ncc(Cl)cn2)c1-n1cc(Br)cn1 [Compound 194, 2-[2-(4-bromo-1H-pyrazol-1-yl)-3-(difluoromethyl)phenoxy]-5-chloropyrimidine]
Plant response rating, Barnyardgrass (barnyardgrass [1]; 31 g ai/ha): 0
Plant response rating, Barnyardgrass (barnyardgrass [1]; 62 g ai/ha): 0
Plant response rating, Barnyardgrass (barnyardgrass [1]; 125 g ai/ha): 0
Plant response rating, Barnyardgrass (barnyardgrass [1]; 250 g ai/ha): 0
Goosegrass plant response rating (goosegrass; 31 g ai/ha): 40
Goosegrass plant response rating (goosegrass; 62 g ai/ha): 75
Beggarticks plant response rating (hairy beggarticks; 31 g ai/ha): 0
Beggarticks plant response rating (hairy beggarticks; 62 g ai/ha): 0
Lambsquarters plant response rating (lambsquarters; 31 g ai/ha): 80
Lambsquarters plant response rating (lambsquarters; 62 g ai/ha): 100
Johnsongrass plant response rating (johnsongrass; 31 g ai/ha): 0
Johnsongrass plant response rating (johnsongrass; 62 g ai/ha): 50
Surinam Grass plant response rating (surinam grass; 31 g ai/ha): 0
Surinam Grass plant response rating (surinam grass; 62 g ai/ha): 0
Panicum, Fall plant response rating (fall panicum; 31 g ai/ha): 80
Panicum, Fall plant response rating (fall panicum; 62 g ai/ha): 100
Ragweed plant response rating (ragweed; 31 g ai/ha): 0
Ragweed plant response rating (ragweed; 62 g ai/ha): 20
Plant response rating, Ducksalad (ducksalad; 31 g ai/ha): 65
Plant response rating, Ducksalad (ducksalad; 62 g ai/ha): 80
Plant response rating, Ducksalad (ducksalad; 125 g ai/ha): 90
Plant response rating, Ducksalad (ducksalad; 250 g ai/ha): 100
Barnyardgrass plant response rating (barnyardgrass [2]; 31 g ai/ha): 0
Barnyardgrass plant response rating (barnyardgrass [2]; 62 g ai/ha): 0
Poinsettia, Wild plant response rating (wild poinsettia; 31 g ai/ha): 10
Poinsettia, Wild plant response rating (wild poinsettia; 62 g ai/ha): 0
Dayflower, VA plant response rating (dayflower; 31 g ai/ha): 0
Dayflower, VA plant response rating (dayflower; 62 g ai/ha): 40
Crabgrass, Large plant response rating (large (Lg) crabgrass; 31 g ai/ha): 85
Crabgrass, Large plant response rating (large (Lg) crabgrass; 62 g ai/ha): 95
